This is an account of results in the NIST ThermoML archive (doi:10.1021/je801009z).

The conditions of this data set: Vibrating tube method.

“And” between values parts separate entries of the source, which are not always exact repeats. Identical values can stand only once. Numbers after ± are expanded uncertainties.

For the molecule `FCC(F)(F)F` [1,1,1,2-tetrafluoroethane], the mass density (commonly mass per unit of volume) by setting is: (288 K, 19600 kPa, Liquid) 1290 ± 120 kg/m3; (298 K, 19600 kPa, Liquid) 1270 ± 60 kg/m3; (308 K, 5000 kPa, Liquid) 1150 ± 100 kg/m3; (308 K, 10100 kPa, Liquid) 1180 ± 60 kg/m3; (308 K, 15400 kPa, Liquid) 1210 ± 10 kg/m3; (308 K, 19600 kPa, Liquid) 1240 ± 10 kg/m3 and 1240 ± 60 kg/m3. Further, the mass density was found to be 1260 ± 100 kg/m3 (308 K, 23700 kPa, Liquid); 1210 ± 60 kg/m3 (318 K, 19600 kPa, Liquid); 1180 ± 120 kg/m3 (328 K, 19600 kPa, Liquid).
As for `O=C=O` [carbon dioxide], the mass density was 870 ± 120 kg/m3 (308 K, 20000 kPa, Fluid (supercritical or subcritical phases)); 570 kg/m3 (313 K, 10000 kPa, Fluid (supercritical or subcritical phases)); 780 ± 20 kg/m3 (313 K, 15000 kPa, Fluid (supercritical or subcritical phases)); 850 ± 80 kg/m3 and 830 ± 60 kg/m3 (313 K, 20000 kPa, Fluid (supercritical or subcritical phases)); 890 ± 180 kg/m3 (313 K, 25000 kPa, Fluid (supercritical or subcritical phases)); 900 ± 200 kg/m3 (313 K, 36000 kPa, Fluid (supercritical or subcritical phases)). In addition, the mass density was 820 ± 20 kg/m3 (318 K, 20000 kPa, Fluid (supercritical or subcritical phases)); 790 ± 20 kg/m3 (323 K, 20000 kPa, Fluid (supercritical or subcritical phases)); 760 ± 80 kg/m3 (328 K, 20000 kPa, Fluid (supercritical or subcritical phases)); 730 ± 140 kg/m3 (333 K, 20000 kPa, Fluid (supercritical or subcritical phases)).
